pIC50: −log10 of the molar value. Read-outs that look alike come from different tables or passages of the source.
Experiments:
[1] = molecular target: EGFR del19/T790M/C797S (Homo sapiens, UniProt P00533, C797S/DEL746-750/T790M); assay: Biochemical EGFR kinase assay (Lance Ultra TR-FRET), triple mutant del19/T790M/C797S
How it was run: (§1)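 Kinase activity is measured by TR-FRET phosphopeptide detection. Compounds span 0.003 μM to 10 μM; the 1 h reaction at room temperature is quenched with EDTA, then labelled antibody (2 nM) is incubated 60 min before reading.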

[2] = molecular target: EGFR L858R/T790M/C797S (Homo sapiens, UniProt P00533, C797S/L858R/T790M); assay: Biochemical EGFR kinase assay (Lance Ultra TR-FRET), triple mutant L858R/T790M/C797S
EGFR L858R/T790M/C797S, sequence (P00533 25-1210 T790M/C797S/L858R): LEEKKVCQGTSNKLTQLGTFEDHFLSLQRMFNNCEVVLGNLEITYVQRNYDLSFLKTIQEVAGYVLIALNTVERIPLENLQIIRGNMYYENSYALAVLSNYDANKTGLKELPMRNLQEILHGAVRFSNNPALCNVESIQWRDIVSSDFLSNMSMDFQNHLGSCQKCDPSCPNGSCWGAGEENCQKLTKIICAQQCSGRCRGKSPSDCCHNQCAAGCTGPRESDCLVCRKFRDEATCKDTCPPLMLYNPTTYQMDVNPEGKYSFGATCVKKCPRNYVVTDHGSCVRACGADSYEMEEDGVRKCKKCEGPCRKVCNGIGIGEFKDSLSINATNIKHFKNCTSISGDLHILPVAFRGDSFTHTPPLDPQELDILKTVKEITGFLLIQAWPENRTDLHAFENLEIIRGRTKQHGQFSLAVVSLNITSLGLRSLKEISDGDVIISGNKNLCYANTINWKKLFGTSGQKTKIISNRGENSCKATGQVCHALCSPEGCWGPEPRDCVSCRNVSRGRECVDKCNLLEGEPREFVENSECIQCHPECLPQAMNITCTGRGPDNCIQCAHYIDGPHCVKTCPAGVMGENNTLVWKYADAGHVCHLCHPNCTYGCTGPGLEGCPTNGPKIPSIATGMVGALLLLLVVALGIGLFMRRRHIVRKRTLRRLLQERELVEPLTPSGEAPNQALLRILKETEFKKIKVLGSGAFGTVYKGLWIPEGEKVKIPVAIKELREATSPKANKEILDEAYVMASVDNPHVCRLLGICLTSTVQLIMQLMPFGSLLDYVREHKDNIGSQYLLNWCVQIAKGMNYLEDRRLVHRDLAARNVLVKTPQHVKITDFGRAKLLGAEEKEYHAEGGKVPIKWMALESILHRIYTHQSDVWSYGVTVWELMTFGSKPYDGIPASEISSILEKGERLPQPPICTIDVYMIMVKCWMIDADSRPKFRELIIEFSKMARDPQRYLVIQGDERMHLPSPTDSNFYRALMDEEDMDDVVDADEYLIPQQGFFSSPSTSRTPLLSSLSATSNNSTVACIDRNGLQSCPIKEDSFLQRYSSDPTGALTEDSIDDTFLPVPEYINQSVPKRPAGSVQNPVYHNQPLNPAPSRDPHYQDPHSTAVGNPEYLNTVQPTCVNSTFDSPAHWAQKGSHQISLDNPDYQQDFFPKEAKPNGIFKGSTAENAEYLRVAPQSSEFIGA
How it was run: as §1

[3] = molecular target: EGFR L858R/C797S (Homo sapiens, UniProt P00533, C797S/L858R); assay: Biochemical EGFR kinase assay (Lance Ultra TR-FRET), double mutant L858R/C797S
How it was run: as §1

[4] = molecular target: EGFR wildtype (Homo sapiens, UniProt P00533); assay: Biochemical EGFR kinase assay (Lance Ultra TR-FRET), wildtype
EGFR wildtype, sequence (P00533 25-1210): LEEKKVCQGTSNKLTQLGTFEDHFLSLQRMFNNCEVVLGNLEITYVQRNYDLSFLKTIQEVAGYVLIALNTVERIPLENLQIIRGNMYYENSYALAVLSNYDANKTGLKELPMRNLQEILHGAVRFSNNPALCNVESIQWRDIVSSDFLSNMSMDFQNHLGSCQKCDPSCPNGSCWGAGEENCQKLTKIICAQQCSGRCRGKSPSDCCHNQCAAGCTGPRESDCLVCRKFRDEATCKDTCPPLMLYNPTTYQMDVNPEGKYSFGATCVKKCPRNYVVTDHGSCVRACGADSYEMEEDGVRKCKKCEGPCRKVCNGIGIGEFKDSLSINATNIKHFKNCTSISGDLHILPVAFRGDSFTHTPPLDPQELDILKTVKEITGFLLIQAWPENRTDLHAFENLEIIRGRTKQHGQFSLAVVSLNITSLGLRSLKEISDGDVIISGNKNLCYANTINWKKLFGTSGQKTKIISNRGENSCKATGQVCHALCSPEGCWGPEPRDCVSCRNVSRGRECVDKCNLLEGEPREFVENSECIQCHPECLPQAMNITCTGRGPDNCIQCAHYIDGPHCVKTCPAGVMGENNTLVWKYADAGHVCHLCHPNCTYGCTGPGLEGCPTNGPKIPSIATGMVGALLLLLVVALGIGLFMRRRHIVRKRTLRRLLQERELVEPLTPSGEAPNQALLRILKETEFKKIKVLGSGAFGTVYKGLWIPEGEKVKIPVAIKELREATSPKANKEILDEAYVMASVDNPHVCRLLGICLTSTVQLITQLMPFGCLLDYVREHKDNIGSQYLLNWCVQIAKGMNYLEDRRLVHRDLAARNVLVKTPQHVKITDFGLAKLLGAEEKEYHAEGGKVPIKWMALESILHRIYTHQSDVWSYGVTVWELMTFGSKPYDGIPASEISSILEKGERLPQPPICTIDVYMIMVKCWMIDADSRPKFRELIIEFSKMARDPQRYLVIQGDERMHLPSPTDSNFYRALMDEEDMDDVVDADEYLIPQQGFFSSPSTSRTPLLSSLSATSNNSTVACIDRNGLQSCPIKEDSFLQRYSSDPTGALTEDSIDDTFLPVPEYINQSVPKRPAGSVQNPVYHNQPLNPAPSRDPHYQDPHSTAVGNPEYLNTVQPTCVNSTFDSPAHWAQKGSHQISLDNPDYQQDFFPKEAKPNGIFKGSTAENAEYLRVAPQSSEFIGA
How it was run: as §1

[5] = molecular target: EGFR del19/C797S (Homo sapiens, UniProt P00533, C797S/DEL746-750); assay: Biochemical EGFR kinase assay (Lance Ultra TR-FRET), double mutant del19/C797S
EGFR del19/C797S, sequence (P00533 with tags, fused parts or gaps DEL746-750/C797S): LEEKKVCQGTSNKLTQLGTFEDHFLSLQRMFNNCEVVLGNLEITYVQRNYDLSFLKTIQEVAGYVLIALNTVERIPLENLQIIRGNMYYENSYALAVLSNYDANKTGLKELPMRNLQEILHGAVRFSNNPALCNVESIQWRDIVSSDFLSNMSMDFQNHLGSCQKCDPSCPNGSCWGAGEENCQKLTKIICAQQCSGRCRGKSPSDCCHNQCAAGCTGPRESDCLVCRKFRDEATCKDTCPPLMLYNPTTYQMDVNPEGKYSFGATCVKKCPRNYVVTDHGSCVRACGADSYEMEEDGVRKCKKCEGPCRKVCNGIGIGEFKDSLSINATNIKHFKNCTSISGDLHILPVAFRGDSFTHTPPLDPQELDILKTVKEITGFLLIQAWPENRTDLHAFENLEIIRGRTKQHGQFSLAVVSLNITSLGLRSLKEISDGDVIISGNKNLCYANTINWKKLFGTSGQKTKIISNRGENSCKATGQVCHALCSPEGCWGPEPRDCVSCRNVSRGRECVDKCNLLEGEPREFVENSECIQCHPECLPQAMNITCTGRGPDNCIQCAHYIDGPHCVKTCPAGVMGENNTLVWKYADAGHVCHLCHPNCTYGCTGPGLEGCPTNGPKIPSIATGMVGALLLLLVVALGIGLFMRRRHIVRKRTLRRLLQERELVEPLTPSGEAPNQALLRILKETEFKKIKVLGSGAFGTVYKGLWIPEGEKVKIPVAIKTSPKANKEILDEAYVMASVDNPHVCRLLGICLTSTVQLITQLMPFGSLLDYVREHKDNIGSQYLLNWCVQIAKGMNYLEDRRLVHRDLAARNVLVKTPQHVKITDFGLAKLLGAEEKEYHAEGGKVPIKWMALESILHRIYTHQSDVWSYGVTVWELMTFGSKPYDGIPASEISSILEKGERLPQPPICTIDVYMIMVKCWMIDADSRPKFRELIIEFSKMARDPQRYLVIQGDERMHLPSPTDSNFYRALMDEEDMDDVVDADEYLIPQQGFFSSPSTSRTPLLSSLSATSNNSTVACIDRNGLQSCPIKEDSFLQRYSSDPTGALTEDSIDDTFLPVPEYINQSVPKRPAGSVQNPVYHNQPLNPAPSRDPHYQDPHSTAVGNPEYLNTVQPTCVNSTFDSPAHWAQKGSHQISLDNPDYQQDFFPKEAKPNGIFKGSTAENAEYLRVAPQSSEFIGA
How it was run: as §1

[6] = IC50 del19/T790M/C797S (nM) 100 μM ATP, 100 μM ATP
[7] = Km ATP, read-out: IC50 del19/T790M/C797S (nM) Km ATP
[8] = IC50 L858R/T790M/C797S (nM) 100 μM ATP, 100 μM ATP
[9] = IC50 L858R/C797S (nM) 100 μM ATP, 100 μM ATP
[10] = Km ATP, read-out: IC50 L858R/C797S (nM) Km ATP
[11] = IC50 WT (nM) 100 μM ATP, 100 μM ATP
[12] = Km ATP, read-out: IC50 WT (nM) Km ATP
[13] = IC50 del19/C797S (nM) 100 μM ATP, 100 μM ATP
[14] = Km ATP, read-out: IC50 del19/C797S (nM) Km ATP
[15] = ATP at Km, read-out: IC50 del19/T790M/C797S, Km ATP
[16] = IC50 del19/T790M/C797S, 100 μM ATP
[17] = IC50 L858R/T790M/C797S, 100 μM ATP
[18] = ATP at Km, read-out: IC50 L858R/C797S, Km ATP
[19] = ATP at Km, read-out: IC50 WT, Km ATP
[20] = ATP at Km, read-out: IC50 del19/C797S, Km ATP
[21] = ATP at Km, read-out: IC50 L858R/T790M/C797S, Km ATP
[22] = Km ATP, read-out: IC50 L858R/T790M/C797S (nM) Km ATP

EGFR del19/T790M/C797S, sequence (P00533 with tags, fused parts or gaps DEL746-750/T790M/C797S): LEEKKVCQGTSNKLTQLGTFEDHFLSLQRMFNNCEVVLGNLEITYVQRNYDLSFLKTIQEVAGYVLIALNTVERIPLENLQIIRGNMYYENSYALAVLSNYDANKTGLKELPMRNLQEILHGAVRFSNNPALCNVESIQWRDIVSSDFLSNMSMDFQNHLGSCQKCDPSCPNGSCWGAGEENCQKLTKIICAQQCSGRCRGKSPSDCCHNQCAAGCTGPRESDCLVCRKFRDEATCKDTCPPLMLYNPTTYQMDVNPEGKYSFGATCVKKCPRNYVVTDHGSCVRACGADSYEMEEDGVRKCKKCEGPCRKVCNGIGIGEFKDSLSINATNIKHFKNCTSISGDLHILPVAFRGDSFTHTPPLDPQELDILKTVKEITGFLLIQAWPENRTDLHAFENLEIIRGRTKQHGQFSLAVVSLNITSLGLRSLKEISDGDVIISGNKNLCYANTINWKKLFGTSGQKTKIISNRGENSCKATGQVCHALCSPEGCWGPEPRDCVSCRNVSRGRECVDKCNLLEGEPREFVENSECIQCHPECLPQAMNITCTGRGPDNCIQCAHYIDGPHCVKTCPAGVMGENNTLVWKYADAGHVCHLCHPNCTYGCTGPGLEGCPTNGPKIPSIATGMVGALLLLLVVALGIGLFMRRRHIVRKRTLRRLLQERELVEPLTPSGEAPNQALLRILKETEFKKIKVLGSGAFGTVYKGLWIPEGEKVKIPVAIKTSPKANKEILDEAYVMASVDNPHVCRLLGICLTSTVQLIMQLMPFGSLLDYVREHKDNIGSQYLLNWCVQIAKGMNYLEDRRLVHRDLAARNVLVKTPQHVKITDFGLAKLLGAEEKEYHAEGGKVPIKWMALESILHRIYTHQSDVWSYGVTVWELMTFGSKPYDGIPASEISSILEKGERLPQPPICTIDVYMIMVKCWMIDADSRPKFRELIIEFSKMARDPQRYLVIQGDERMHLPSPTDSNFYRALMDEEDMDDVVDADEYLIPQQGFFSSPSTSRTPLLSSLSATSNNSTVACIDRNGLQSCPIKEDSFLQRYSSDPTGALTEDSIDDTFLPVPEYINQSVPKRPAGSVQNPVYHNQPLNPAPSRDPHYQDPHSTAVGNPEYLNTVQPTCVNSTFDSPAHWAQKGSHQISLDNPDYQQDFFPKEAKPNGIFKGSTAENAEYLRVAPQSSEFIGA

IC50 [1, 6] [nM]	IC50 [1, 7] [nM]	IC50 [2, 8] [nM]	IC50 [3, 9] [nM]	IC50 [3, 10] [nM]	IC50 [4, 11] [nM]	IC50 [4, 12] [nM]	IC50 [5, 13] [nM]	IC50 [5, 14] [nM]	pIC50 [1, 15]	pIC50 [1, 16]	pIC50 [2, 17]	pIC50 [3, 18]	pIC50 ([3]; IC50 L858R/C797S, 100 μM ATP)	pIC50 [4, 19]	pIC50 ([4]; IC50 WT, 100 μM ATP)	pIC50 [5, 20]	pIC50 ([5]; IC50 del19/C797S, 100 μM ATP)	pIC50 [2, 21]	IC50 [2, 22] [nM]	SMILES
–	–	–	–	–	–	–	–	–	8.49	8.74	8.54	8.54	7.56	7.92	5.57	8.31	8.06	–	–	O=S(=O)(C1CC1)n1cc(-c2nccc(Nc3cc(N[C@H]4CC[C@@H](CO)CC4)c(-c4ccc(CC(F)(F)F)cn4)cn3)n2)cn1 [Example 219, ((1s,4s)-4-((6′-((2-(1-(Cyclopropylsulfonyl)-1H-pyrazol-4-yl)pyrimidin-4-yl)amino)-5-(2,2,2-trifluoroethyl)-[2,3′-bipyridin]-4′-yl)amino)cyclohexyl)methanol]
–	–	–	–	–	–	–	–	–	8.01	–	–	7.41	–	7.55	–	7.22	–	8.64	–	CC(C)Nc1cc(Nc2ccnc(-c3cnn(S(=O)(=O)C4CC4)c3)n2)ncc1-c1ccc(C(O)C(F)(F)F)cn1 (centres unmarked) [Example 294, 1-(6′-((2-(1-(Cyclopropylsulfonyl)-1H-pyrazol-4-yl)pyrimidin-4-yl)amino)-4′-(isopropylamino)-[2,3′-bipyridin]-5-yl)-2,2,2-trifluoroethan-1-ol]
–	–	–	–	–	–	–	–	–	9.40	9.52	9.70	9.70	9.30	–	7.04	9.70	9.40	9.70	–	CC(C)(O)c1ccc(-c2cnc(Nc3ccnc(-c4cnn(S(=O)(=O)C5CC5)c4)n3)cc2N[C@H]2CC[C@@](C)(O)CC2)nc1 [Example 168, (1s,4s)-4-((6′-((2-(1-(Cyclopropylsulfonyl)-1H-pyrazol-4-yl)pyrimidin-4-yl)amino)-5-(2-hydroxypropan-2-yl)-[2,3′-bipyridin]-4′-yl)amino)-1-methylcyclohexan-1-ol]
0.3	0.3	0.6	11.6	1	5570	6.3	1.2	0.5	–	–	–	–	–	–	–	–	–	–	0.3	O=S(=O)(C1CC1)n1cc(-c2nccc(Nc3cc(N[C@H]4CC[C@@H](NCCF)CC4)c(-c4ccc(CO)cn4)cn3)n2)cn1 [Example 21, (6′-((2-(1-(Cyclopropylsulfonyl)-1H-pyrazol-4-yl)pyrimidin-4-yl)amino)-4′-(((1s,4s)-4-((2-fluoroethyl)amino)cyclohexyl)amino)-[2,3′-bipyridin]-5-yl)methanol]
–	–	–	–	–	–	–	–	–	9.30	–	–	9.70	–	8.55	–	9.40	–	9.70	–	CC(C)Nc1cc(Nc2ccnc(-c3cnn(S(=O)(=O)C4CC4)c3)n2)ncc1-c1ccc(OC2CCN(C)CC2)cn1 [Example 249, N^6′-(2-(1-(Cyclopropylsulfonyl)-1H-pyrazol-4-yl)pyrimidin-4-yl)-N^4′-isopropyl-5-((1-methylpiperidin-4-yl)oxy)-[2,3′-bipyridine]-4′,6′-diamine]
–	–	–	–	–	–	–	–	–	9.52	9.40	9.52	10.00	8.74	9.22	6.37	9.52	9.30	9.70	–	CN(C)CCOc1ccc(-c2cnc(Nc3ccnc(-c4cnn(S(=O)(=O)C5CC5)c4)n3)cc2N[C@H]2CC[C@@H](C(C)(C)O)CC2)nc1 [Example 210, 2-((1s,4s)-4-((6′-((2-(1-(Cyclopropylsulfonyl)-1H-pyrazol-4-yl)pyrimidin-4-yl)amino)-5-(2-(dimethylamino)ethoxy)-[2,3′-bipyridin]-4′-yl)amino)cyclohexyl)propan-2-ol]
–	–	–	–	–	–	–	–	–	8.19	8.46	8.30	8.36	6.94	7.94	< 5.00	7.99	7.84	8.62	–	O=S(=O)(C1CC1)n1cc(-c2nccc(Nc3cc(N[C@H]4CC[C@@H](CCO)CC4)c(-c4ccc(CC(F)(F)F)cn4)cn3)n2)cn1 [Example 223, 2-((1s,4s)-4-((6′-((2-(1-(Cyclopropylsulfonyl)-1H-pyrazol-4-yl)pyrimidin-4-yl)amino)-5-(2,2,2-trifluoroethyl)-[2,3′-bipyridin]-4′-yl)amino)cyclohexyl)ethan-1-ol]
0.3	0.3	0.2	1.1	0.2	165	0.3	0.2	0.1	–	–	–	–	–	–	–	–	–	–	0.2	O=S(=O)(C1CC1)n1cc(-c2nccc(Nc3cc(N[C@H]4CC[C@@H](CO)CC4)c(-c4ccc(CO)cn4)cn3)n2)cn1 [Example 22, (6′-((2-(1-(Cyclopropylsulfonyl)-1H-pyrazol-4-yl)pyrimidin-4-yl)amino)-4′-(((1s,4s)-4-(hydroxymethyl)cyclohexyl)amino)-[2,3′-bipyridin]-5-yl)methanol]

Second part, the compound before the results:

SMILES	IC50 [1, 6] [nM]	IC50 [1, 7] [nM]	IC50 [2, 8] [nM]	IC50 [3, 9] [nM]	IC50 [3, 10] [nM]	IC50 [4, 11] [nM]	IC50 [4, 12] [nM]	IC50 [5, 13] [nM]	IC50 [5, 14] [nM]	pIC50 [1, 15]	pIC50 [1, 16]	pIC50 [2, 17]	pIC50 [3, 18]	pIC50 ([3]; IC50 L858R/C797S, 100 μM ATP)	pIC50 [4, 19]	pIC50 ([4]; IC50 WT, 100 μM ATP)	pIC50 [5, 20]	pIC50 ([5]; IC50 del19/C797S, 100 μM ATP)	pIC50 [2, 21]	IC50 [2, 22] [nM]
CC(C)(O)[C@H]1CC[C@@H](Nc2cc(Nc3ccnc(-c4cnn(S(=O)(=O)C5CC5)c4)n3)ncc2-c2cc(C(F)F)ccn2)CC1 [Example 78, 2-((1s,4s)-4-((6′-((2-(1-(Cyclopropylsulfonyl)-1H-pyrazol-4-yl)pyrimidin-4-yl)amino)-4-(difluoromethyl)-[2,3′-bipyridin]-4′-yl)amino)cyclohexyl)propan-2-ol]	5.5	6.8	5.4	85.5	16.6	> 10000	23.6	15.8	8.8	–	–	–	–	–	–	–	–	–	–	–
CN(C)S(=O)(=O)n1cc(-c2nccc(Nc3cc(NC4CCC(C)(O)CC4)c(-c4ccc(C(O)C(F)(F)F)cn4)cn3)n2)cn1 (centres unmarked) [Example 297, 4-(4-((4′-(((1s,4s)-4-Hydroxy-4-methylcyclohexyl)amino)-5-(2,2,2-trifluoro-1-hydroxyethyl)-[2,3′-bipyridin]-6′-yl)amino)pyrimidin-2-yl)-N,N-dimethyl-1H-pyrazole-1-sulfonamide]	–	–	–	–	–	–	–	–	–	8.80	–	–	8.52	–	7.40	–	8.40	–	8.85	–
C[C@]1(O)CC[C@@H](Nc2cc(Nc3ccnc(-c4cnn(S(=O)(=O)C5CC5)c4)n3)ncc2-c2cnc(OC3CCN(CCF)CC3)cn2)CC1 [Example 153, (1s,4s)-4-((2-((2-(1-(Cyclopropylsulfonyl)-1H-pyrazol-4-yl)pyrimidin-4-yl)amino)-5-(5-((1-(2-fluoroethyl)piperidin-4-yl)oxy)pyrazin-2-yl)pyridin-4-yl)amino)-1-methylcyclohexan-1-ol]	–	–	–	–	–	–	–	–	–	9.40	–	–	9.70	–	8.49	–	9.70	–	10.00	–
C[C@]1(O)CC[C@@H](Nc2cc(Nc3ccnc(-c4cnn(S(=O)(=O)C5CC5)c4)n3)ncc2-c2cnc(OC3CCOCC3)cn2)CC1 [Example 148, (1s,4s)-4-((2-((2-(1-(Cyclopropylsulfonyl)-1H-pyrazol-4-yl)pyrimidin-4-yl)amino)-5-(5-((tetrahydro-2H-pyran-4-yl)oxy)pyrazin-2-yl)pyridin-4-yl)amino)-1-methylcyclohexan-1-ol]	–	0.3	–	–	1	–	15.1	–	2	–	–	–	–	–	–	–	–	–	–	0.3
C[C@]1(O)CC[C@@H](Nc2cc(Nc3ccnc(-c4cnn(S(=O)(=O)C5CC5)c4)n3)ncc2-c2cc(N3CCOCC3)ccn2)CC1 [Example 48, (1s,4s)-4-((6′-((2-(1-(Cyclopropylsulfonyl)-1H-pyrazol-4-yl)pyrimidin-4-yl)amino)-4-morpholino-[2,3′-bipyridin]-4′-yl)amino)-1-methylcyclohexan-1-ol]	0.6	0.5	2.1	83.3	14.1	> 10000	24.7	5.8	–	–	–	–	–	–	–	–	–	–	–	0.3
CC(C)(O)c1cnc(-c2cnc(Nc3ccnc(-c4cnn(S(=O)(=O)C5CC5)c4)n3)cc2N[C@H]2CC[C@@H](C(C)(C)O)CC2)cn1 [Example 120, 2-(5-(6-((2-(1-(Cyclopropylsulfonyl)-1H-pyrazol-4-yl)pyrimidin-4-yl)amino)-4-(((1s,4s)-4-(2-hydroxypropan-2-yl)cyclohexyl)amino)pyridin-3-yl)pyrazin-2-yl)propan-2-ol]	0.2	0.2	0.4	–	0.1	968	4.3	0.7	0.5	–	–	–	–	–	–	–	–	–	–	0.1

Source: patent publication US12258328B2, “6-membered heteroaryl-containing aminopyridine compounds as EGFR inhibitors” (YUHAN CORPORATION, priority 2021, dated 2025)
